According to the kinase profiling compilation of Christmann-Franck et al. (2016):

Tests used:
Assay in all cases: KINOMEscan competition binding
Settings in all cases: compound 10.0 µM
NEK10 (human) = NEK10 (human) (UniProt Q6ZWH5)
SGK1 (human) = SGK1 (human) (UniProt O00141)
GSG2 (human) = GSG2 (human) (UniProt Q8TF76)
WNK1 (human) = WNK1 (human) (UniProt Q9H4A3)
[1] = system: ALK (human), Q9UM73 [L1196M]
[2] = system: ALK (human), Q9UM73 [C1156Y]

Sequence of GSG2 (human) (Q8TF76 whole entry, looked up): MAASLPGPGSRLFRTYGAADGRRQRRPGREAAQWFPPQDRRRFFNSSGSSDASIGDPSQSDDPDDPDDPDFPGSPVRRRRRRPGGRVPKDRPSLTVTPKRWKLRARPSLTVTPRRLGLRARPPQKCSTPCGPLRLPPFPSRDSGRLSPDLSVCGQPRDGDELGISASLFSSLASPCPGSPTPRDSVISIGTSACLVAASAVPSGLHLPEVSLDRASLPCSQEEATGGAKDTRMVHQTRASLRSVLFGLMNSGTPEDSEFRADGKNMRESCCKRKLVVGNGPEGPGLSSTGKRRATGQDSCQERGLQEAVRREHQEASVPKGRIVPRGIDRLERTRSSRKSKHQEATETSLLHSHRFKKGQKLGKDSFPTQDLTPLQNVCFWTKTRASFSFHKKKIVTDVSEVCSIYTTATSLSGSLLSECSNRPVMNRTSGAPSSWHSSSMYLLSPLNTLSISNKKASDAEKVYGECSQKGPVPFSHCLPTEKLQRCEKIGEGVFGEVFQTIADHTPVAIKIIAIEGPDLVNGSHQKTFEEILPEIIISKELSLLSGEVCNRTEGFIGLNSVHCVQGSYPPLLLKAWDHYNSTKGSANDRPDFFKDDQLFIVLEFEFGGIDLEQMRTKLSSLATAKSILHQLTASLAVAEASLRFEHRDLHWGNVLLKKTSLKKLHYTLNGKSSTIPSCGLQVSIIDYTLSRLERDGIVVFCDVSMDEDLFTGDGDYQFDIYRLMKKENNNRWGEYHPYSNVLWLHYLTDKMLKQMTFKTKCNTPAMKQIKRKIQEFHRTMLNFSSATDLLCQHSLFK
Sequence of SGK1 (human) (O00141 whole entry, looked up): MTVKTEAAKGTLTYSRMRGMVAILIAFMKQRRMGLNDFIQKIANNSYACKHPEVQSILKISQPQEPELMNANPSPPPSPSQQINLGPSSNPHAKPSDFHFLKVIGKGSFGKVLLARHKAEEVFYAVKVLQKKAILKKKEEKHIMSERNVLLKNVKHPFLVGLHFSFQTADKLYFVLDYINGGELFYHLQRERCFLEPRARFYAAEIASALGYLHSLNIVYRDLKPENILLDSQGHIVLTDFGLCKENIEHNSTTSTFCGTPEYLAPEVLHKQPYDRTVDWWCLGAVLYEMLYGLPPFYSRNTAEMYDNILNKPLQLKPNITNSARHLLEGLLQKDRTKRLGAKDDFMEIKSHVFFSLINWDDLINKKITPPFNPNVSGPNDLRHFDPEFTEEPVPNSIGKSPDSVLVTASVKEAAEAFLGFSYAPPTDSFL
Sequence of WNK1 (human) (Q9H4A3 whole entry, looked up): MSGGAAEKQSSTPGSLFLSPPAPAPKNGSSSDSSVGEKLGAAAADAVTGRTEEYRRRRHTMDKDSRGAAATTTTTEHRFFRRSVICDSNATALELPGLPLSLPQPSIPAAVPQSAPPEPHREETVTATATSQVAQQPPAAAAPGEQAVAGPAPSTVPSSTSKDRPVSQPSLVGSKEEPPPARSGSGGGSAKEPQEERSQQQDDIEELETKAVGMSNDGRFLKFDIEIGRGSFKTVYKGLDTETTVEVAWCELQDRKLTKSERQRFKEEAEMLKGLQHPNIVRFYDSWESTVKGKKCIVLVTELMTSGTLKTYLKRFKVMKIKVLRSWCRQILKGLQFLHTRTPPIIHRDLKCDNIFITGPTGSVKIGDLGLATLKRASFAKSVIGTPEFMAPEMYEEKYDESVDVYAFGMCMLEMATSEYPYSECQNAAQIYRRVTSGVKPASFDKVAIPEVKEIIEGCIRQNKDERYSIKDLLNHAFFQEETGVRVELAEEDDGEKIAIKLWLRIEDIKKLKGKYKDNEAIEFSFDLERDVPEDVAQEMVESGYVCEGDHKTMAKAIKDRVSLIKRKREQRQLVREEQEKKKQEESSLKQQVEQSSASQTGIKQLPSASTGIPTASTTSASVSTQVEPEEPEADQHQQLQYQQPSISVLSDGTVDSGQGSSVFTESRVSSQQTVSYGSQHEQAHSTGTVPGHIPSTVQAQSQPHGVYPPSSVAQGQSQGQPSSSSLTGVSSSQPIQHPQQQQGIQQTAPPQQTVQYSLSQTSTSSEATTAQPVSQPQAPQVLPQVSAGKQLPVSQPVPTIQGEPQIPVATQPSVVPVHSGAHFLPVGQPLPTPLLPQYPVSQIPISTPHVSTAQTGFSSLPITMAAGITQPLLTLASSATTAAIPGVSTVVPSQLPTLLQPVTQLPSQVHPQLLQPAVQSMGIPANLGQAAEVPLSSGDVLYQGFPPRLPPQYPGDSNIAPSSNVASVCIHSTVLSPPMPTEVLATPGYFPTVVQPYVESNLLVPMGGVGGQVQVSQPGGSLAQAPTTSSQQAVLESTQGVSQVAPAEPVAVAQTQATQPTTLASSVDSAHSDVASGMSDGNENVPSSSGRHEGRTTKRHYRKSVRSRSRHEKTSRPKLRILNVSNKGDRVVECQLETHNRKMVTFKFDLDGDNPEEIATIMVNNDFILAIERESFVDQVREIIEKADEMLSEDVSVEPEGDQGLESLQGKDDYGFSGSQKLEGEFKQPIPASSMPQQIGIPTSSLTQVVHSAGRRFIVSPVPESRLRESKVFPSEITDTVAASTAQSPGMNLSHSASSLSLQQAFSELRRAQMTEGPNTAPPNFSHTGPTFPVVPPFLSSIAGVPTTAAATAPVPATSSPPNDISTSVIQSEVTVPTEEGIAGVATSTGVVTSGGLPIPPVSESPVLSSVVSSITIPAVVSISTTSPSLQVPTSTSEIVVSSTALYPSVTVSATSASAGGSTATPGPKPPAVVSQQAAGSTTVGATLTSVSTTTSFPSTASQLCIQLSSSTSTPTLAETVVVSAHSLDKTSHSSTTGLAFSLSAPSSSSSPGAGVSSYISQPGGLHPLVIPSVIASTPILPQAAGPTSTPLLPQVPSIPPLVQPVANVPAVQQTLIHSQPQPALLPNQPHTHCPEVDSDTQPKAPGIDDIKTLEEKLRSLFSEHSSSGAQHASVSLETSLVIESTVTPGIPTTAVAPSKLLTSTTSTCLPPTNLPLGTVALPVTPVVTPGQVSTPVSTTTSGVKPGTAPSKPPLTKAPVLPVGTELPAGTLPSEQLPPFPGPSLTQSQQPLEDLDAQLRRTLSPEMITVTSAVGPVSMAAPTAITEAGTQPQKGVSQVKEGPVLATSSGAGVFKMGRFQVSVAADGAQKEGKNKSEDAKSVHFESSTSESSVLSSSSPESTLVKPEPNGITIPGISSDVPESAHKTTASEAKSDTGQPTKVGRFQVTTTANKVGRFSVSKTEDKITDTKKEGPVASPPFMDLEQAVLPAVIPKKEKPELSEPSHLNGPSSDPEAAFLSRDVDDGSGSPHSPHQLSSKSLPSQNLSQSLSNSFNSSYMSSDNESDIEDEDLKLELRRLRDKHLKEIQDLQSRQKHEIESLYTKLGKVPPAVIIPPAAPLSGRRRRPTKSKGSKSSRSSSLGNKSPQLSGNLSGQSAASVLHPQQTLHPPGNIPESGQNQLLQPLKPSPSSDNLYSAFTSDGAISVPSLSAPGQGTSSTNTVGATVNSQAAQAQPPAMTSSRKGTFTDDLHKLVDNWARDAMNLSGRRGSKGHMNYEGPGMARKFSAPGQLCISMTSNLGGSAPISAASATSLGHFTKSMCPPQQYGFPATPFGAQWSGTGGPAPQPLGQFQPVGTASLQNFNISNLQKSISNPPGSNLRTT
Sequence of NEK10 (human) (Q6ZWH5 whole entry, looked up): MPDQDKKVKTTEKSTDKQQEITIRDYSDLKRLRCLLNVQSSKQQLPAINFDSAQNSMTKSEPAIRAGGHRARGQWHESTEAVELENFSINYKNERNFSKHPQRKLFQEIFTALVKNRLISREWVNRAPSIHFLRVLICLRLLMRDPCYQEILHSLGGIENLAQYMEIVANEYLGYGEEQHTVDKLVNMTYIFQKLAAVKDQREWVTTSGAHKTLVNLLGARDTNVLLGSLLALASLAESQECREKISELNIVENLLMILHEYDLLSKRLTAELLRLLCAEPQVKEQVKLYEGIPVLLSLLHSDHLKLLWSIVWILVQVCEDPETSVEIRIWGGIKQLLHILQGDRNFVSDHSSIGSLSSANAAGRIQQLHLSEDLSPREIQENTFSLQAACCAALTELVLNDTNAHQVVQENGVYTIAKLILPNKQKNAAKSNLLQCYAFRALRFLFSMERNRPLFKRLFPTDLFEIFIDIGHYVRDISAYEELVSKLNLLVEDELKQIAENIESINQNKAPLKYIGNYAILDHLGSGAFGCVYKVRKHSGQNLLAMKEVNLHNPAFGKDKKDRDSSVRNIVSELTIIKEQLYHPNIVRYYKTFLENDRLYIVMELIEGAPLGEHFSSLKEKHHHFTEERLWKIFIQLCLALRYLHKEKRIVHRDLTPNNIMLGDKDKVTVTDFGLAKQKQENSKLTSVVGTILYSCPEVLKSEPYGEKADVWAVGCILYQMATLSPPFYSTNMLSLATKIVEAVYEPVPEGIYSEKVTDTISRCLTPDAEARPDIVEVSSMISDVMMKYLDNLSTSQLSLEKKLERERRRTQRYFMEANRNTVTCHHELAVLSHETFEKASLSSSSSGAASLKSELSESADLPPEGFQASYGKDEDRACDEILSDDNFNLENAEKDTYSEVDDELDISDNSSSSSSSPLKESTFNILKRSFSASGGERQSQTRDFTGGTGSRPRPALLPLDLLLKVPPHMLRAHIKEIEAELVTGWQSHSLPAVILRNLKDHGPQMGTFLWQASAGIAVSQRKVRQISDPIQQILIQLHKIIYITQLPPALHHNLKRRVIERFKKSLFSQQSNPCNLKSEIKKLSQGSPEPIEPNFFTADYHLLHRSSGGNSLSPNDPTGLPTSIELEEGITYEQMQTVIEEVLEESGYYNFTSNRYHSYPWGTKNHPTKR

Work on `O=C1NC(=O)/C(=C/c2ccc3nccc(-c4ccncc4)c3c2)S1` yielded a kinase still bound, per cent of control (NEK10 (human)) of 0%, a kinase still bound, per cent of control (SGK1 (human)) of 43% and a kinase still bound, per cent of control (GSG2 (human)) of 6.2%. It also gave a kinase still bound, per cent of control (WNK1 (human)) of 57%, a kinase still bound, per cent of control [1] of 45% and a kinase still bound, per cent of control [2] of 42%.
For `N#CCNC(=O)c1ccc(-c2ccnc(Nc3ccc(N4CCOCC4)cc3)n2)cc1`, the kinase still bound, per cent of control (SGK1 (human)) was 2.8%, the kinase still bound, per cent of control (GSG2 (human)) was 67% and the kinase still bound, per cent of control (WNK1 (human)) was 75%.
